The results in this text go back to patent US20060106102A1, “Napththalene derivatives which inhibit the cytokine or biological activity of microphage migration inhibitory factor (mif)” (priority 2002, published 2006).

Where two headings read alike, the source gives them in different places.

The subject of series [1] is recombinant human macrophage migration inhibitory factor (MIF)-induced proliferation of S112 human dermal fibroblasts. Put plainly: MIF-induced proliferation of S112 human dermal fibroblasts, 3H-thymidine incorporation. It counts as cell-based. On the procedure:
The activity of each compound was studied in a bioassay utilising MIF-induced proliferation of human dermal fibroblasts. S112 human dermal fibroblasts were propagated in RPMI/10% foetal calf serum (FCS). Prior to experimentation, cells were seeded at 10^5 cells/ml in RPMI/0.1% BSA for 18 hours. At time point zero, culture medium was replaced with RPMI/10% FCS and treatments administered. Cells were treated with recombinant human macrophage migration inhibitory factor (MIF) 50 ng/ml (1.353×10^−9 M) and/or the compound at a 1 or 1000 molar ratio to the concentration of MIF. In some experiments the compound was combined with MIF at time point −30 minutes, prior to adding at time point zero. At time point 30 hours, cells were pulsed with […]. At time point 48 hours, cells were harvested using a semi-automated cell harvester. The radioactivity incorporated into DNA was determined by liquid scintillation counting, with results expressed as [^3H] thymidine incorporation. The proliferation of untreated cells was expressed as 100% and the effect of MIF and each compound expressed in relative %.
The activity of compound 5 was studied in a bioassay utilising MIF-induced proliferation of human dermal fibroblasts. S112 human dermal fibroblasts were propagated in RPMI/10% foetal calf serum (FCS). Prior to experimentation, cells were seeded at 10^5 cells/ml in RPMII/0.1% BSA for 18 hours. At time point zero, culture medium was replaced with RPMI/10% FCS and treatments administered. Cells were treated with recombinant human macrophage migration inhibitory factor (MIF) 50 ng/ml and/or compound 5 at a 1-1000 molar ratio to the concentration of MIF. At a time point 30 hours later, cells were pulsed with 1 μCi/well of ^3H-thymidine. At a time point 48 hours after commencement of the experiment, cells were harvested using a semi-automated cell harvester. The radioactivity incorporated into DNA was determined by liquid scintillation counting, with results expressed as [^3H] thymidine incorporation.
For orientation: Dividing cells build labelled thymidine or BrdU into new DNA.

The subject of series [2] is antigen-specific T cell activation (splenic T lymphocytes from mBSA-immunised mice). As to the kind of experiment: antigen-specific (mBSA) activation of splenic T lymphocytes in vitro, 3H-thymidine incorporation. It counts as cell-based, C57BL6/J mice. Conditions: Mus musculus, T-cell, read-out: EC50 (T cell activation suppressed by 50% compared to vehicle-only-treated cells). On the procedure: After a further seven (7) days mice were killed and spleens collected aseptically into Hanks buffered saline solution (HBSS). A single cell suspension was prepared in Petri dishes by flushing DMEM through the organ using a 26G needle and 2 mL syringe. The resulting cell suspension was centrifuged for 5-7 minutes and supernatant discarded. Erythrocytes were lysed using a solution containing 0.579% NH4Cl, 0.000037% EDTA, and 0.1% NaHCO3 in a 37° C. water bath. Tubes were then filled with DMEM and centrifuged for 5-7 minutes. […] The specific stimulating antigen, mBSA, was then added at 10-50 μg/mL and plates incubated for 30 hours in a 37° C., 5% CO2 incubator. Tritiated^3H-thymidine was then added at a concentration of 0.5 μCi/well for a further 18 hours. Cells were harvested on a Packard cell harvester, and the harvested material added to 750 μL/tube scintillation fluid. Scintillation counts were read on a Wallac beta-emnission counter. […] Further compounds were also tested for their ability to inhibit antigen-specific T cell activation as a marker of the inhibition of the cytokine or biological activity of MIF using this assay.

The subject of series [3] is ex vivo splenic T cell proliferation. Put plainly: ex vivo antigen-specific splenic T cell proliferation after in vivo treatment. Particulars: [mBSA] 10 ug/mL; cells from compound-treated versus vehicle-treated mice. From the text:
In vivo administration of such a compound might be expected to exert effects on T cell responsiveness even after the T cells have been removed from exposure to the compound, that is, if T cells were studied ex vivo after in vivo treatment with the MIF antagonist compound. To measure ex vivo antigen-specific T cell activation, spleens were removed from mice with murine antigen induced arthritis, induced as above with mBSA, at day 28 after first immunisation and a single cell suspension prepared in DMEM containing 5% FCS and 0.05% 2-mercaptoethanol. 1×10^5 cells /200 μl were cultured in triplicate in the presence or absence of mBSA (0.1, 1.0, 10 μg /ml) in 96-well plates for 48 hours (37° C., 5% CO2) The T cell proliferation response was determined by measuring ^3H-thymidine incorporation during the final 18 hr. The cells were harvested and radioactivity incorporation into the DNA was measured with a Wallac 1409 liquid scintillation counter. The means of each triplicate culture were calculated. Each experiment comprised at least three individual animals and the results presented represent the mean±SEM of groups of animals in each experiment. The percentage inhibition of T cell proliferation was calculated using the result of the ^3H-thymidine incorporation of cells from compound-treated animals divided by the ^3H-thymidine incorporation of cells from vehicle-treated animals.

The test system of series [4] is IL-1-induced COX-2 expression. As to the kind of experiment: IL-1-induced COX-2 expression in S112 human dermal fibroblasts (MIF-dependent event), flow cytometry. It counts as cell-based. Particulars: Homo sapiens, Fibroblast, IL-1 0.1 ng/ml, 6 hours, S112 cells, read-out: % inhibition of IL-1-induced COX2 expression (Effect). The method, then: The activity of each compound was studied in a bioassay utilising MIF-dependent activation of human dermal fibroblasts. […] IL-1-induced COX-2 expression is therefore a MIF-dependent event. […] Prior to experimentation, cells were seeded at 10^5 cells/ml in RPMI/0.1% BSA for 18 hours. […] Cells permeabilised with 0.1% saponin were sequentially labelled with a mouse anti-human COX-2 monoclonal antibody and with sheep-anti-mouse F(ab)2 fragment labelled with fluoroscein isothiocyanate. Cellular fluorescence was determined using a flow cytometer. At least 5000 events were counted for each reading, each of which was performed in duplicate, and the results expressed in mean fluorescence intensity (MFI) after subtraction of negative control-labelled cell fluorescence. The effect of each compound was determined by subtracting the IL-1+compound-treated cell MFI from the IL-1-treated cell MFI and expressed as % inhibition. In each case the % inhibition of IL-1-induced COX2 expression is shown as the mean, or mean±SEM where results are available from multiple experiments.
Background: Flow cytometry measures light scatter and fluorescence of single cells or particles in a stream.

The test system of series [5] is murine peritoneal macrophage nitric oxide production. Put plainly: murine peritoneal macrophage nitric oxide production (nitrite, Greiss assay). It counts as cell-based, C57BL6/J mice. Particulars: Mus musculus, LPS 10 ng/ml and interferon-γ 10 units/ml, 24 hours, read-out: % Nitrite concentration inhibition from control. On the procedure:
C57BL6/J male mice were injected intraperitoneally with 2ml of thioglycollate. Five (5) days later peritoneal macrophages were collected by ravaging the peritoneum of anaesthetized mice with 3 ml of cold Hanks buffered saline solution. Cells from several mice were pooled, washed and re-suspended in DMEM supplemented with 5% FCS. Cells were plated in 96 well plastic tissue culture plates at 1×10^5 cells/well. Cells were treated with compound or vehicle for 1 hour in a 5% CO2 incubator at 37° C. Cells were then treated with LPS (10 ng/ml) and recombinant human interferon-γ (10 units/ml) and incubated for 24 hours. After 24 hours, 50 μl of supernatant from each well was carefully removed and transferred to ELISA plates. The concentration of nitrite in culture supernatants was measured by the Greiss assay (41). The results were defined as the percentage inhibition of nitrite concentration in compound-treated cell culture supernatants compared to that of vehicle-treated cells.

Series [6] deals with rat adjuvant-induced arthritis (AIA) model. Put plainly: rat adjuvant-induced arthritis (AIA) model. The class given is in vivo, Sprague-Dawley rats. Particulars: 1.0 mg/kg once daily intraperitoneal. The method, then: The activity of each compound was studied in the rat adjuvant-induced arthritis (AIA) model of rheumatoid arthritis. […] Male Sprague-Dawley rats (150±20 g) were used. Adjuvant artritis was induced by intradermal injection at the tail base of […] of a 10 mg/ml suspension of heat-inactivated Mycobacterium tuberculosis (Difco, Detroit, Mich.) in squalane. The compound was administered at a dose of 1.0 mg/kg body weight by once daily intraperitoneal injection on each day (treated). Control animals received an identical volume injection of vehicle (control). Joint inflammation in adjuvant arthritis was assessed clinically as follows: • i) Articular index/score: A score of 0 (no observable erythema or swelling) to 4 (severe swelling and erythema) was given for each paw. All four paws were scored, resulting in a maximum possible score of 16 for each animal (34). • ii) Synovial fluid cell number: Joints were exposed by removal of overlying skin, needle arthrocentesis performed and joint space cells obtained by closed needle lavage with 2 ml saline using a 26 gauge needle and syringe. Lavaged cells from both ankle joints were pooled, washed in saline (300 g for 5 minutes), and counted in a hemocytometer (Improved Nebauer, Weber, UK) (34).

As to `COc1cc2ccc(C(=O)O)cc2cc1OC` [Compound 4, 6,7-dimethoxy-2-naphthanoic acid], the melting point (in general, the temperature, or range, at which the solid turns liquid) was in the range of 248 to 250 °C. In addition, the “effect on MIF-induced proliferation of human dermal fibroblasts (FIGS. 1 and 2)” value in series [1] (1M ratio equivalent to MIF 50 ng/ml) is “inhibition of MIF-induced proliferation”. Besides, the inhibition at 0.013 µM in series [1] (Homo sapiens, Fibroblast, concentration 0.013 μM, rhMIF 50 ng/ml, S112 cells, read-out: % inhibition of proliferation compared to vehicle plus rhMIF-treated cells) was 24%. Moreover, the 50% effective concentration (EC50) (commonly the concentration that produces a half-maximal response) in series [2] (mBSA 10 μg/ml) came out at 14.8 µM. Further, in series [2] (mBSA 50 μg/ml), the half-maximal effective concentration (EC50) amounted to 49.5 µM. Further, in series [3], the “% inhibition of ex vivo splenic T cell proliferation” value is recorded as 18%. In addition, in series [4] (compound 1 uM), the inhibition at 1 µM is 2.7%.

For `COc1cc2ccccc2cc1OC` [Compound 2, 6,7-dimethoxynaphthalene], in series [5] (25 uM), the inhibition at 25 µM is 5.8%. Also, in series [5] (50 uM), the inhibition at 50 µM stood at 8.5%. In addition, the inhibition at 100 µM in series [5] (100 uM) is 13.6%. Moreover, the EC50 was found to be 18.1 µM in series [2] (mBSA 10 μg/ml) and 52 µM in series [2] (mBSA 50 μg/ml). Further, the inhibition at 0.1 µM in series [4] (compound 0.1 uM) is 11.6%. In addition, the “arthritis severity (articular index, synovial fluid cell number; FIGS. 5 and 6)” value in series [6] is given as “significant inhibition of arthritis severity”.
